In ChEMBL document CHEMBL1156512, “Accumulation of glucosylceramide in murine testis, caused by inhibition of beta-glucosidase 2: implications for spermatogenesis” (J Biol Chem, 2007) one finds IC50, Activity and concentration data, which are given here for four compounds.

One data set deals with T1, Beta-glucosidase (Homo sapiens, UniProt Q9HCG7).
T1 sequence (Q9HCG7 whole entry): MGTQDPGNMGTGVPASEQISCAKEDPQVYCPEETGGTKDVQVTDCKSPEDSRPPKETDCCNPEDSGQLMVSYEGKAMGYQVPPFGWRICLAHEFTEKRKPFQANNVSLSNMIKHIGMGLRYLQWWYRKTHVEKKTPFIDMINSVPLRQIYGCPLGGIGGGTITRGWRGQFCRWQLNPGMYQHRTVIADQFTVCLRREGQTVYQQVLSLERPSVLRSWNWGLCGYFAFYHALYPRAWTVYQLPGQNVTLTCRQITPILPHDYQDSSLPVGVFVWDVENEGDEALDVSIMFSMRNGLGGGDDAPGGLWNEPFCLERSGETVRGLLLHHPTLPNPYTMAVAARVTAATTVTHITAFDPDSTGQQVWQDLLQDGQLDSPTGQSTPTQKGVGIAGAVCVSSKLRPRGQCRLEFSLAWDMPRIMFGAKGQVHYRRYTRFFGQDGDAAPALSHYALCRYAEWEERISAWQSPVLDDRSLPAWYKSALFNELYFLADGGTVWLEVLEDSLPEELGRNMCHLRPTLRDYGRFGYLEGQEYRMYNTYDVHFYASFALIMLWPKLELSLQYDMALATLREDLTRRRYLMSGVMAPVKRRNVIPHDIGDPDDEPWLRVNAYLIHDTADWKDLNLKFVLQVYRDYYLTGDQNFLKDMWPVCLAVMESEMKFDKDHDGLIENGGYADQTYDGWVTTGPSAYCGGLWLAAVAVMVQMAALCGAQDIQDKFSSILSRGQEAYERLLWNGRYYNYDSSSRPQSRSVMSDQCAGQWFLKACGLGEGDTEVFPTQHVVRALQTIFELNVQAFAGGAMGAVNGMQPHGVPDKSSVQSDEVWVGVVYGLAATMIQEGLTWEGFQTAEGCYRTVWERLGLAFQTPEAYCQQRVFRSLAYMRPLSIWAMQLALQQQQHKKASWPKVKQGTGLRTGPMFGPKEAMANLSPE
The experiment in a line: Inhibition of bile acid beta-glucosidase activity of human liver GBA2.

Data set [1] concerns the target T2, Ceramide glucosyltransferase (Mus musculus, UniProt O88693).
T2 sequence (O88693 whole entry): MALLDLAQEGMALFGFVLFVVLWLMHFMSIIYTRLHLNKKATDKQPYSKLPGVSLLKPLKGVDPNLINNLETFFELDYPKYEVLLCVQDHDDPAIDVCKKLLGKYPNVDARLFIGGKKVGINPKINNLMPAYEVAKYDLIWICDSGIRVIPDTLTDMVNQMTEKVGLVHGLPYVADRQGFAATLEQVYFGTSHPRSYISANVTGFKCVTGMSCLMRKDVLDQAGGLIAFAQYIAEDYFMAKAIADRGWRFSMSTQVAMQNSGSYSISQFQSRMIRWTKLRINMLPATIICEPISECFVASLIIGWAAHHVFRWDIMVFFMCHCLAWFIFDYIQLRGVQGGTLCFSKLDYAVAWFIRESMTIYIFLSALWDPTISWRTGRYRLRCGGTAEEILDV
The experiment in a line: Inhibition mouse glucosylceramide synthase.

The test system of data set [2] is Mus musculus. Put plainly: Increase in complex glycosylated sphingolipids level in C57BL/6 mouse testes at 15 mg/kg/day administered with chow after 6 to 9 months. Type of data set: functional, organism-based. As to conditions: Testis.
The test system of data set [3] is Mus musculus. Put plainly: Reduction of complex glycosylated sphingolipids level in C57BL/6 mouse testes at 2400 mg/kg/day administered with chow. The format is functional. Also noted: scale not given: the % may be the effect or the level left.
For data set [4], the system named is Mus musculus. The experiment in a line: Effect on spermatogenesis in C57BL/6-129S1 mouse assessed as morphological changes in spermatozoa at 150 mg/kg/day administered with chow. Type of data set: functional, organism-based.
Data set [5] deals with Mus musculus. Put plainly: Effect on spermatogenesis in C3H mouse assessed as morphological changes in spermatozoa at 150 mg/kg/day administered with chow. The format is functional, organism-based.
The subject of data set [6] is Mus musculus. The experiment in a line: Effect on spermatogenesis in AKR mouse assessed as morphological changes in spermatozoa at 150 mg/kg/day administered with chow. Type of data set: functional, organism-based.
Data set [7] relates to Mus musculus. The experiment in a line: Effect on spermatogenesis in BALB/c mouse assessed as morphological changes in spermatozoa at 150 mg/kg/day administered with chow. Type of data set: functional, organism-based.
Data set [8] concerns Mus musculus. The experiment in a line: Effect on glucosylceramide level in C57BL/6 mouse testes at 15 mg/kg/day administered with chow. Type of data set: functional, organism-based. The note with it: Testis.
Data set [9] concerns Mus musculus. The experiment in a line: Effect on spermatogenesis in C57BL/10 mouse assessed as morphological changes in spermatozoa at 15 mg/kg/day administered with chow. The format is functional, organism-based.
Data set [10] deals with Mus musculus. The experiment in a line: Increase in long and saturated glucosylceramide level in C57BL/6 mouse testes at 150 mg/kg/day administered with chow. Type of data set: functional, organism-based. The note with it: Testis.
For data set [11], the system named is Mus musculus. Put plainly: Effect on testicular ceramides level in C57BL/6 mouse at 150 mg/kg/day administered with chow. The format is functional, organism-based.
The subject of data set [12] is Mus musculus. The experiment in a line: Increase in glucosylceramide level in C57BL/6 mouse brain at 1200 mg/kg/day administered with chow. The format is functional, organism-based.
For data set [13], the system named is Mus musculus. Put plainly: Increase in glucosylceramide level in C57BL/6 mouse testes administered with chow after 5 days. The format is functional, organism-based. The note with it: Testis.
The test system of data set [14] is Mus musculus. Put plainly: Increase in very long and polyunsaturated glucosylceramide level in C57BL/6 mouse testes at 150 mg/kg/day administered with chow. The format is functional, organism-based. The note with it: Testis.
In data set [15] the test system is Mus musculus. The experiment in a line: Increase in glucosylceramide level in GBA2 deficient C57BL/6-129S1 mouse germ cells at 150 mg/kg/day administered with chow. The format is functional, organism-based.
Data set [16] deals with Mus musculus. Put plainly: Effect on complex glycosylated sphingolipids level in C57BL/6 mouse testes at 15 to 50 mg/kg/day, po. The format is functional, organism-based. As to conditions: Testis.
Data set [17] has as its system Mus musculus. Put plainly: Effect on spermatogenesis in C57BR mouse assessed as morphological changes in spermatozoa at 150 mg/kg/day administered with chow. Type of data set: functional, organism-based.
The species entered for data set [18] is Mus musculus. The experiment in a line: Increase in neutral glycolipids level in C57BL/6 mouse testes. As to conditions: Testis. The format is functional, organism-based.
Data set [19] concerns Mus musculus. The experiment in a line: Increase in glucosylceramide level in GBA2 deficient C57BL/6-129S1 mouse testes at 150 mg/kg/day administered with chow. The format is functional, organism-based. The note with it: Testis.
For data set [20], the system named is Mus musculus. Put plainly: Increase in glucosylceramide level in C57BL/6 mouse liver administered with chow. The format is functional, organism-based.
Data set [21] deals with Mus musculus. The experiment in a line: Increase in complex glycosylated sphingolipids in C57BL/6 mouse testes at 5 mg/kg/day administered with chow. The format is functional, Testis.
Data set [22] deals with Mus musculus. The experiment in a line: Effect on testicular sphingomyelin level in C57BL/6 mouse at 150 mg/kg/day administered with chow. The format is functional, organism-based.
The next data set concerns Serum. Put plainly: Drug level in C57BL/6 mouse serum at 15 mg/kg/day assessed as enzyme activity. Type of data set: ADME, organism-based. As to conditions: in vivo, read-out: Drug uptake.
For data set [23], the system named is Mus musculus. The experiment in a line: Effect on spermatogenesis in FVB/N mouse assessed as morphological changes in spermatozoa at 15 mg/kg/day administered with chow. Type of data set: functional, organism-based.
In data set [24] the test system is Mus musculus. The experiment in a line: Increase in glucosylceramide level in C57BL/6 mouse testes administered with chow at 15 mg/kg/day after 3 to 12 months. The format is functional, Testis.
In data set [25] the test system is Mus musculus. The experiment in a line: Increase in glucosylceramide level in GBA2 deficient C57BL/6-129S1 mouse somatic cells at 150 mg/kg/day administered with chow. Type of data set: functional, organism-based.
In data set [26] the test system is Mus musculus. Put plainly: Increase in glucosylceramide level in C57BL/6 mouse testes at 300 mg/kg/day administered with chow. The format is functional, organism-based. The note with it: Testis.
Data set [27] concerns Mus musculus. Put plainly: Effect on spermatogenesis in MA/My mouse assessed as morphological changes in spermatozoa at 150 mg/kg/day administered with chow. Type of data set: functional, organism-based.
The subject of data set [28] is Mus musculus. The experiment in a line: Effect on spermatogenesis in C57BL/6 mouse assessed as morphological changes in spermatozoa at 150 mg/kg/day administered with chow. Type of data set: functional, organism-based.
Data set [29] has as its system Mus musculus. The experiment in a line: Effect on spermatogenesis in NZW mouse assessed as morphological changes in spermatozoa at 150 mg/kg/day administered with chow. The format is functional, organism-based.
For data set [30], the species on record is Mus musculus. Put plainly: Effect on glucosylceramide level in C57BL/6 mouse testes. Type of data set: functional, organism-based. As to conditions: Testis.
Data set [31] concerns Mus musculus. Put plainly: Increase in glucosylceramide level in C57BL/6 mouse spleen administered with chow. The format is functional, organism-based.
Data set [32] has as its system Mus musculus. Put plainly: Effect on spermatogenesis in DBA2 mouse assessed as morphological changes in spermatozoa at 150 mg/kg/day administered with chow. The format is functional, organism-based.
Data set [33] deals with Mus musculus. The experiment in a line: Decrease in testicular very long chain polyunsaturated fatty acid sphingomyelin level in beta-glucosidase 2 deficient C57BL/6-129S1 mouse at 150 mg/kg/day administered with chow. Type of data set: functional, organism-based.

Structures are written as SMILES. Active and inactive are the calls of the source. The calls are words filed in the database; no cut-off is given here.

What is called IC50 is the concentration at which inhibition is half-maximal.

In the case of `CCCCCCCCCOC(=O)N1C[C@H](O)[C@@H](O)[C@H](O)[C@H]1CO`, half-maximal inhibition on Beta-glucosidase (IC50) required 20 nM.

Take `CCCCN1[C@H](CO)[C@H](O)[C@H](O)[C@@H](O)[C@@H]1O`: in data set [1], the IC50 was determined as 5300 nM.

In turn, `CCCCCCCCCCCCN1C[C@H](O)[C@@H](O)[C@H](O)[C@H]1CO` gave an IC50 at Beta-glucosidase of 2 nM.

In the case of `CCCCN1C[C@H](O)[C@@H](O)[C@H](O)[C@H]1CO`, the result in the data set on Mus musculus [2], in the data set on Mus musculus [8], in the data set on Mus musculus [9], with Mus musculus [10], with Mus musculus [12] and in the data set on Mus musculus [13] was Active. Further, the result in the data set on Mus musculus [14], in the data set with Mus musculus [15], in the data set on Mus musculus [17], in the data set filed under Mus musculus [18], with Mus musculus [19] and in the data set on Mus musculus [25] was Active. Moreover, the outcome in the data set on Mus musculus [26], in the data set with Mus musculus [28], in the data set with Mus musculus [31] and in the data set on Mus musculus [33] was Active. For the same compound, the Activity is 22% in the data set on Mus musculus [3], 15% with Mus musculus [21], 5 in the data set on Mus musculus [24] and “Dose-dependent effect” in the data set listed under Mus musculus [30]. In addition, the outcome in the data set with Mus musculus [4], in the data set with Mus musculus [5], in the data set on Mus musculus [6], with Mus musculus [7], in the data set on Mus musculus [11] and in the data set with Mus musculus [16] was inactive. Also, the result in the data set on Mus musculus [20], with Mus musculus [22], with Mus musculus [23], in the data set on Mus musculus [27], with Mus musculus [29] and with Mus musculus [32] was inactive. Besides, the concentration in the data set with Serum is 490 nM.
